The target in this experiment is T1, human α7 nAChR (Homo sapiens, UniProt P36544).
T1 construct: host or cells: GH4C1 cells (pituitary tumor, immortalized cell line)
Nature of the experiment: α7 nAChR FLIPR (Fluorometric Imaging Plate Reader) Ca2+ assay, agonist EC50. The following applies: GH4C1 cells stably transfected with human α7 nAChR; Fluo-4 Ca2+ fluorescence; Examples 194 to 205 tested as the HCl salt; read-out: pEC50 value (negative logarithm of the agonist EC50) (converted). The class given is cell-based. On the procedure: α7 nAChR FLIPR® (Fluorometric Imaging Plate Reader) Assay
Function of the heterologous expressed α7 nAChR was assessed by a FLIPR-Ca^2+ assay. Since nAChRs are non-selective cation channels with high permeability to Ca^2+, these studies were carried out by measuring changes of intracellular Ca^2+ concentration using the Ca^2+-chelating fluorescent dye Fluo-4 and FLIPR® (Fluorometric Imaging Plate Reader) technology.
GH4C1cells (pituitary tumor, immortalized cell line) stably transfected with human α7 nAChR (Biocat ID 96986), were thawed, suspended in growth medium (Ham's Nutrient Mixture F10—Ham's F10, Invitrogen 31550-023, 15% Horse Serum heat inactivated—Invitrogen 26050-047, 2.5% Foetal Bovine Serum—FBS, Gibco 10500-064, 200 μg/ml Hygromycin B—Invitrogen, 10687-010, 10 mg/L Phenol Red—Sigma, P 0290, 1 mM Glutamine—Invitrogen, 25030-024) and plated in 500 cm^2 Triple Flask.
Cells were then incubated at 30° C., 5% CO2 for 72 hours.
On the day of the experiment, cells were washed twice with Assay Buffer (AB) (145 mM NaCl, 5 mM KCl, 1 mM MgCl2, 2 mM CaCl2, 20 mM HEPES, 5.5 mM Glucose pH=7.3) containing 2.5 mM Probenecid. Changes in the intracellular Ca^2+ content of stably transfected cells were measured using the Ca^2+ chelating dye Fluo-4 (Tef Labs 0152) in conjunction with a FLIPR® (Molecular Devices). The cell permeant dye Fluo-4 was prepared to a concentration of 1 mM in 100% DMSO and 10% Pluronic acid. The dye was then diluted with AB to a final concentration of 2 μM and placed on the cells. After 45-60 minutes dye loading incubation at 37° C., the unincorporated dye was removed from the cells by washing (80 μL, 3 times) with AB, and a final volume of 30 μL/well of AB was left in each well.
Plates containing test compounds (dissolved in 100% DMSO at 2 mM and serially diluted with DMSO) were copied into “daughter” plates (1 μL/well dispensation). Just prior to starting the assay, the “daughter” plate was diluted with 50 μL/well of AB.
The plates were then placed in the FLIPR®, and cell fluorescence was determined before drug addition (30 seconds) and monitored (excitation 488 nm, emission 510-580 nm) immediately following exposure to compounds. Maximum fluorescence values were recorded and fitted for agonist EC50 calculations.
The results are expressed as pEC50 values. A pEC50 is the negative logarithm of the agonist EC50 calculation as determined in the α7 nAChR FLIPR® assay. […] Variations in pEC50 may arise between tests.

T1 sequence (P36544 23-502): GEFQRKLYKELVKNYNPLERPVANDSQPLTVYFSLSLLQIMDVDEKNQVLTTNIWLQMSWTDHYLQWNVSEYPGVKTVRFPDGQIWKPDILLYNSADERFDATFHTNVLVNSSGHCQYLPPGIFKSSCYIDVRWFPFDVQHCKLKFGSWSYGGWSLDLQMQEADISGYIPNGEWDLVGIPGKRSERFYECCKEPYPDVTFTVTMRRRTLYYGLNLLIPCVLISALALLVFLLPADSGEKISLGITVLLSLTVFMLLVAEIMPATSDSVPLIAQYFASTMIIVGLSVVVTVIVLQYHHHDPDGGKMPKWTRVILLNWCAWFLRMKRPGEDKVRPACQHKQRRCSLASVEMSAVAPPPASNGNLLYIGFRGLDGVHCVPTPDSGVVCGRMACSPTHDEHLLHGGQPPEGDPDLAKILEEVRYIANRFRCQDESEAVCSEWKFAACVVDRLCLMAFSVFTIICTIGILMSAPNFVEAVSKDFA

Turning to `O=C(Nc1ccc(-c2nnc(NCCCCN3CCCC3)o2)c(C(F)(F)F)c1)C1CCCCC1` [Example 64, N-[4-(5-{[4-(1-pyrrolidinyl)butyl]amino}-1,3,4-oxadiazol-2-yl)-3-(trifiuoromethyl)phenyl]cyclohexanecarboxamide], the EC50 is at most 1 µM.

As to `O=C(Nc1ccc(-c2nnc(NCCCCN3CCOCC3)o2)c(C(F)(F)F)c1)C1CCCCC1` [Example 66, N-[4-(5-{[4-(4-morpholinyl)butyl]amino}-1,3,4-oxadiazol-2-yl)-3-(trifluoromethyl)phenyl]cyclohexanecarboxamide], the EC50 is at most 1 µM.

In the case of `CCN(CC)CCCNc1nnc(-c2ccc(NC(=O)C3CCCCC3)cc2C(F)(F)F)o1` [Example 67, N-[4-(5-{[3-(diethylamino)propyl]amino}-1,3,4-oxadiazol-2-yl)-3-(trifluoromethyl)phenyl]cyclohexanecarboxamide], the EC50 is at most 1 µM.

In the case of `CCN(CC)CCCCNc1nnc(-c2ccc(NC(=O)C3CCCCC3)cc2C(F)(F)F)o1` [Example 68, N-[4-(5-{[4-(diethylamino)butyl]amino}-1,3,4-oxadiazol-2-yl)-3-(trifluoromethyl)phenyl]cyclohexanecarboxamide], the EC50 was at most 1 µM.

With `O=C(Nc1ccc(-c2nnc(NCCCN3CCCC3)o2)cc1)c1ccccc1` [Example 69, N-[4-(5-{[3-(1-pyrrolidinyl)propyl]amino}-1,3,4-oxadiazol-2-yl)phenyl]benzamide], the EC50 was at most 1 µM.

As to `COc1cc(NC(=O)c2ccccc2)ccc1-c1nnc(NCCCN2CCCC2)o1` [Example 70, N-[3-(methyloxy)-4-(5-{[3-(1-pyrrolidinyl)propyl]amino}-1,3,4-oxadiazol-2-yl)phenyl]benzamide], the EC50 was at most 1 µM.

Consider `COc1cc(NC(=O)c2ccccc2)ccc1-c1nnc(NCCCN2CCCCC2)o1` [Example 71, N-[3-(methyloxy)-4-(5-{[3-(1-piperidinyl)propyl]amino}-1,3,4-oxadiazol-2-yl)phenyl]benzamide], for which the EC50 is at most 0.1 µM.

For the molecule `COc1cc(NC(=O)c2ccccc2)ccc1-c1nnc(NCCCN2CCOCC2)o1` [Example 72, N-[3-(methyloxy)-4-(5-{[3-(4-morpholinyl)propyl]amino}-1,3,4-oxadiazol-2-yl)phenyl]benzamide], the EC50 is at most 1 µM.

For the molecule `COc1cc(NC(=O)c2ccccc2)ccc1-c1nnc(NCCCCN2CCOCC2)o1` [Example 73, N-[3-(methyloxy)-4-(5-{[4-(4-morpholinyl)butyl]amino}-1,3,4-oxadiazol-2-yl)phenyl]benzamide], the EC50 was at most 0.1 µM.

`CCN(CC)CCCNc1nnc(-c2ccc(NC(=O)c3ccccc3)cc2OC)o1` [Example 74, N-[4-(5-{[3-(diethylamino)propyl]amino}-1,3,4-oxadiazol-2-yl)-3-(methyloxy)phenyl]benzamide]: the concentration for a half-maximal effect (EC50) was at most 1 µM.

For `CCN(CC)CCCCNc1nnc(-c2ccc(NC(=O)c3ccccc3)cc2OC)o1` [Example 75, N-[4-(5-{[4-(diethylamino)butyl]amino}-1,3,4-oxadiazol-2-yl)-3-(methyloxy)phenyl]benzamide], the EC50 was at most 0.1 µM.

In the case of `COc1cc(NC(=O)c2ccccc2)ccc1-c1nnc(NCCCCN2CCCC2)o1` [Example 76, N-[3-(methyloxy)-4-(5-{[4-(1-pyrrolidinyl)butyl]amino}-1,3,4-oxadiazol-2-yl)phenyl]benzamide], the 50% effective concentration (EC50) is at most 0.1 µM.

Take `COc1cc(NC(=O)C2CCCCC2)ccc1-c1nnc(NCCCN2CCCC2)o1` [Example 77, N-[3-(methyloxy)-4-(5-{[3-(1-pyrrolidinyl)propyl]amino}-1,3,4-oxadiazol-2-yl)phenyl]cyclohexanecarboxamide]: the EC50 was at most 1 µM.

On to `COc1cc(NC(=O)C2CCCCC2)ccc1-c1nnc(NCCCCN2CCCC2)o1` [Example 78, N-[3-(methyloxy)-4-(5-{[4-(1-pyrrolidinyl)butyl]amino}-1,3,4-oxadiazol-2-yl)phenyl]cyclohexanecarboxamide], for which the EC50 was at most 0.1 µM.

In the case of `COc1cc(NC(=O)C2CCCCC2)ccc1-c1nnc(NCCCN2CCOCC2)o1` [Example 79, N-[3-(methyloxy)-4-(5-{[3-(4-morpholinyl)propyl]amino}-1,3,4-oxadiazol-2-yl)phenyl]cyclohexanecarboxamide], the EC50 was at most 1 µM.

With `COc1cc(NC(=O)C2CCCCC2)ccc1-c1nnc(NCCCCN2CCOCC2)o1` [Example 80, N-[3-(methyloxy)-4-(5-{[4-(4-morpholinyl)butyl]amino}-1,3,4-oxadiazol-2-yl)phenyl]cyclohexanecarboxamide], the EC50 is at most 1 µM.

Turning to `CCN(CC)CCCNc1nnc(-c2ccc(NC(=O)C3CCCCC3)cc2OC)o1` [Example 81, N-[4-(5-{[3-(diethylamino)propyl]amino}-1,3,4-oxadiazol-2-yl)-3-(methyloxy)phenyl]cyclohexanecarboxamide], the EC50 is at most 1 µM.

For `CCN(CC)CCCCNc1nnc(-c2ccc(NC(=O)C3CCCCC3)cc2OC)o1` [Example 82, N-[4-(5-{[4-(diethylamino)butyl]amino}-1,3,4-oxadiazol-2-yl)-3-(methyloxy)phenyl]cyclohexanecarboxamide], the 50% effective concentration (EC50) is at most 1 µM.

On to `COc1cc(NC(=O)C2CCCCC2)ccc1-c1nnc(NCCCCN2CCCCC2)o1` [Example 83, N-[3-(methyloxy)-4-(5-{[4-(1-piperidinyl)butyl]amino}-1,3,4-oxadiazol-2-yl)phenyl]cyclohexanecarboxamide], for which the EC50 was at most 0.1 µM.

`O=C(Nc1ccc(-c2nnc(NCCCN3CCCC3)o2)c(C(F)(F)F)c1)c1ccccc1F` [Example 84, 2-fluoro-N-[4-(5-{[3-(1-pyrrolidinyl)propyl]amino}-1,3,4-oxadiazol-2-yl)-3-(trifluoromethyl)phenyl]benzamide]: the EC50 was at most 1 µM.

Consider `O=C(Nc1ccc(-c2nnc(NCCCCN3CCCC3)o2)c(C(F)(F)F)c1)c1ccccc1F` [Example 85, 2-fluoro-N-[4-(5-{[4-(1-pyrrolidinyl)butyl]amino}-1,3,4-oxadiazol-2-yl)-3-(trifluoromethyl)phenyl]benzamide], for which the concentration for a half-maximal effect (EC50) is at most 0.1 µM.

`O=C(Nc1ccc(-c2nnc(NCCCN3CCOCC3)o2)c(C(F)(F)F)c1)c1ccccc1F` [Example 86, 2-fluoro-N-[4-(5-{[3-(4-morpholinyl)propyl]amino}-1,3,4-oxadiazol-2-yl)-3-(trifluoromethyl)phenyl]benzamide]: the half-maximal effective concentration (EC50) is at most 1 µM.

`O=C(Nc1ccc(-c2nnc(NCCCCN3CCOCC3)o2)c(C(F)(F)F)c1)c1ccccc1F` [Example 87, 2-fluoro-N-[4-(5-{[4-(4-morpholinyl)butyl]amino}-1,3,4-oxadiazol-2-yl)-3-(trifluoromethyl)phenyl]benzamide]: the EC50 was at most 1 µM.

On to `CCN(CC)CCCNc1nnc(-c2ccc(NC(=O)c3ccccc3F)cc2C(F)(F)F)o1` [Example 88, N-[4-(5-{[3-(diethylamino)propyl]amino}-1,3,4-oxadiazol-2-yl)-3-(trifluoromethyl)phenyl]-2-fluorobenzamide], for which the EC50 was at most 1 µM.

As for `CCN(CC)CCCCNc1nnc(-c2ccc(NC(=O)c3ccccc3F)cc2C(F)(F)F)o1` [Example 89, N-[4-(5-{[4-(diethylamino)butyl]amino}-1,3,4-oxadiazol-2-yl)-3-(trifluoromethyl)phenyl]-2-fluorobenzamide], the EC50 is at most 0.1 µM.

Source of the values: patent US20090105217A1, “2-PHENYL-5-AMINO-1,3,4-OXADIAZOLES AND THEIR USE AS NICOTINIC ACETYLCHOLINE RECEPTOR LIGANDS” (priority 2007, published 2009).
